# Reference: PubChem BioAssay AID1996
# Details: buffer; pH 7.4; 200.0 µM
row,SMILES,solubility kinetic
1,COc1ccccc1N1CCN(CCCCN2C(=O)C3CCCCN3C2=O)CC1 (stereo not drawn),52.4 µg/mL
2,COc1ccc(NC(=S)NCCCN2CCCC2)cc1,> 44 µg/mL
3,CC(OC(=O)C1CC1)C(=O)Nc1cc(C(F)(F)F)ccc1Cl (stereo not drawn),32 µg/mL
4,O=C(Nc1ccc(Cl)c(S(=O)(=O)N2CCCC2)c1)c1cc(=O)[nH]c2ccccc12,14.5 µg/mL
5,Cc1cccc(Nc2cc(C)nc3ccccc23)c1.Cl,> 42.7 µg/mL
6,Cc1ccc(-c2ccc(OC(=O)c3ccc(=O)[nH]c3)c(C)c2)cc1,< 0.7 µg/mL
7,COc1ccc(/C=C/C(=O)O)cc1S(=O)(=O)N1CCCC1,> 46.7 µg/mL
8,CC1(c2ccccc2)NC(=O)N(CC(=O)N2CCN(S(=O)(=O)c3c(F)cccc3F)CC2)C1=O (stereo not drawn),25 µg/mL
9,CCCCNC(=S)Nc1ccccc1Cc1ccccc1,32.5 µg/mL
10,O=C(NC(=O)c1ccccc1)Nc1cccc(S(=O)(=O)N2CCCCC2)c1,2.2 µg/mL
11,CCCCOC(=O)Nc1nnc(C(C)C)s1,> 36.5 µg/mL
12,O=C(COc1ccc(Br)cc1)OCC(=O)N1CCOCC1,> 53.7 µg/mL
13,CC(=O)c1csc(COc2ccccc2)n1,27.3 µg/mL
14,CCCN(CC(=O)Nc1ccc(Cl)cc1Cl)C(=O)c1ccc(=O)[nH]c1,> 57.3 µg/mL
15,COc1cccc(NC(=O)N2CCCC(C(=O)NC3CCCCC3C)C2)c1 (stereo not drawn),6.4 µg/mL
16,CSCCC1NC(=O)N(CC(=O)Nc2ccc3c(c2)OCCO3)C1=O (stereo not drawn),> 54.8 µg/mL
17,COC1Cc2ccccc2N(C(N)=O)c2ccccc21 (stereo not drawn),> 40.2 µg/mL
18,Cc1cccc(OCC(=O)Nc2nccs2)c1C,5.1 µg/mL
19,Cc1cc(-c2ccccc2)nc2c(Br)c(=O)[nH]n12,> 45.6 µg/mL
20,COc1ccc2oc(C(=O)OC(C)C(=O)N3C(C)CCCC3C)c(C)c2c1 (stereo not drawn),8.4 µg/mL
21,CN(C)c1ccc(/C=N/OC(=O)Nc2ccccc2)cc1,11 µg/mL
22,COc1cccc(/C=C/c2ccc3cccc(O)c3n2)c1OC,1.2 µg/mL
23,O=C(Cc1ccccc1F)NC1CCCc2ccccc21 (stereo not drawn),16.7 µg/mL
24,CCOC(=O)Cc1csc(NC(=O)CN2CCOCC2)n1,40.1 µg/mL

row,SMILES,solubility kinetic
1,C=CCn1c(SCc2ccc(C(=O)O)cc2)nc2sc(C)c(C)c2c1=O,> 58 µg/mL
2,COc1ccc(NC(=O)c2ccc3[nH]c(C)c(C)c3c2)cc1,3.6 µg/mL
3,CC1CC(c2ccccc2)=Nc2ccccc2N1 (stereo not drawn),26.2 µg/mL
4,CNc1nc(N)c([N+](=O)[O-])c(NC2CCCCC2)n1,1.7 µg/mL
5,O=C1NC2=C(C(=O)CCC2)C(c2ccc(OC(F)F)cc2)N1 (stereo not drawn),41.8 µg/mL
6,N/C(=N\OC(=O)c1ccncc1)c1cccc([N+](=O)[O-])c1,25.6 µg/mL
7,Cn1cc(-c2ccccc2C(=O)O)c(=O)c2ccccc21,> 41.9 µg/mL
8,CC1CCN(C2=NC(=O)/C(=C/c3ccc(O)cc3)S2)CC1,3.8 µg/mL
9,Cc1ccc(N=C2C(=O)Nc3ccc(C)c(Br)c32)cc1,32.6 µg/mL
10,CSc1cccc(NC(=O)c2[nH]c(C)c(C(C)=O)c2C)c1,7.3 µg/mL
11,CCOc1ccccc1NC(=O)C(c1ccccc1)N1CCN(CC(=O)N2CCCC2)CC1 (stereo not drawn),> 67.6 µg/mL
12,Cn1c(SCC(=O)NC2CC2)nnc1-c1ccccn1,> 43.4 µg/mL
13,CC1Cc2ccccc2N1S(=O)(=O)c1cccc(C(=O)OCC(=O)N2CCOCC2)c1 (stereo not drawn),> 66.7 µg/mL
14,CCOC(=O)Nc1ccc(C(=O)c2ccncc2)cc1,4 µg/mL
15,NC(=O)Cn1c(-c2nonc2N)nc2ccccc21,> 38.7 µg/mL
16,COc1ccc2c(C)nc(Nc3nc(-c4ccccc4)cc(=O)[nH]3)nc2c1,< 0.2 µg/mL
17,CN(C)CCCNC(=S)Nc1ccc(-c2ccccc2)cc1,42.8 µg/mL
18,CC(C)Cn1c(N)cc(=O)n(C)c1=O,22.2 µg/mL
19,Cc1c(C(=O)Nc2ccc3c(c2)OCO3)oc2ccccc12,2.9 µg/mL
20,O=C(Nc1nnc(Cc2ccc(Cl)cc2)s1)C1CCCO1 (stereo not drawn),> 48.6 µg/mL
21,NC(=O)c1ccc(NC(=O)CCNC(=O)c2ccco2)cc1,41.2 µg/mL
22,Cc1ccc(C)c2nc(Cl)c(C#N)cc12,< 0.2 µg/mL
23,Cc1occc1C(=O)/C(C#N)=C/c1ccc(O)c(Br)c1,> 49.8 µg/mL
24,CN1C(=O)Cc2cc(S(=O)(=O)NCc3cccs3)ccc21,> 48.4 µg/mL

row,SMILES,solubility kinetic
1,Cc1ccc(OC(C)C(=O)Nc2ccncc2)cc1 (stereo not drawn),31.7 µg/mL
2,O=C(COC(=O)c1c(F)cccc1Cl)NC1CCCC1,> 45 µg/mL
3,Cc1ccc2ncnc(Nc3ccccc3)c2c1,11.6 µg/mL
4,COc1cc2c(cc1OC)CN(C(=O)c1ccc3[nH]c(C)c(C)c3c1)CC2,6.9 µg/mL
5,CCCSc1sc(C(=O)OC)c(-c2cccs2)c1C#N,< 0.7 µg/mL
6,COc1cc2c(cc1OC)C(C)N(C(=O)c1cc(Cl)nc(Cl)c1)CC2 (stereo not drawn),17.1 µg/mL
7,CCOC(=O)C1CCCN(C(=S)NC2CCCCC2)C1 (stereo not drawn),> 44.8 µg/mL
8,Cc1[nH]c2nc3ccccc3n2c(=O)c1CCC(C)C,< 0.2 µg/mL
9,CN1C(=O)/C(=C/c2cn(CC(=O)N3CCCCC3)c3ccccc23)NC1=S,2.7 µg/mL
10,Cc1noc(NC(=O)c2cccc(Cl)c2Cl)c1C#N,43.1 µg/mL
11,Cc1ccc(-c2noc(CCCC(=O)NCC3CCCO3)n2)cc1 (stereo not drawn),42.2 µg/mL
12,CSC1=C(C#N)C(c2ccncc2)C(C(=O)Nc2ccccc2)=C(C)N1 (stereo not drawn),52.5 µg/mL
13,O=C(COC(=O)c1cccnc1Cl)c1ccc(OC(F)F)cc1,51.2 µg/mL
14,O=C(C1CCC1)N1CCN(c2cccc(C(F)(F)F)c2)CC1,38.8 µg/mL
15,Cc1nc(NC(=O)CCc2ccccc2)sc1C,18.7 µg/mL
16,COc1ccc(C(=O)c2nc3ccccc3n2C(C)C)cc1OC,46.1 µg/mL
17,CCC(C)N1CNc2c(c(=O)[nH]c(=S)n2-c2cccc(C)c2)C1 (stereo not drawn),> 49.6 µg/mL
18,CCOc1ccccc1N1CCN(Cc2cnc(-c3ccccc3)[nH]2)CC1,> 54.4 µg/mL
19,O=C(O)c1cc(-c2ccc(Cl)c(Cl)c2)n(-c2ccccc2)n1,> 50 µg/mL
20,Cc1nc2ccccc2c(N)c1C(=O)/C=C/c1ccccc1,> 43.3 µg/mL
21,Cc1ccc(CNC(=O)c2ccc(N(C)C)cc2)cc1,3.2 µg/mL
22,Cc1cccc(C)c1NC(=O)CN(C1CCCCC1)S(C)(=O)=O,> 50.8 µg/mL
23,CN(C)CCCNC(=O)c1cc(C(=O)c2ccc(F)cc2)c[nH]1,> 47.6 µg/mL
24,Cc1ccc(-c2nc(N)sc2C)cc1,30.2 µg/mL

row,SMILES,solubility kinetic
1,CCCCS(=O)(=O)N1CCCC(C(=O)NCCc2ccccc2)C1 (stereo not drawn),14.7 µg/mL
2,CC(=O)c1ccc(NC(=O)C2CC2c2ccccc2)cc1 (stereo not drawn),9.4 µg/mL
3,O=C(CNCc1ccco1)Nc1cc(S(=O)(=O)N2CCOCC2)ccc1N1CCOCC1,> 69.7 µg/mL
4,O=C(NC1CCN(CCc2c[nH]c3ccccc23)CC1)c1ccccc1,51.7 µg/mL
5,COc1cccc(CNC(=S)NC2CC2)c1,35.2 µg/mL
6,CC(=O)C1=C(O)C(=O)N(Cc2ccccc2)C1c1ccc([N+](=O)[O-])cc1 (stereo not drawn),> 52.9 µg/mL
7,CC(=O)c1c(C)oc2ccc(NS(=O)(=O)c3ccc(C)cc3)cc12,< 0.7 µg/mL
8,S=C(Nc1ccccc1)N1CCC(Cc2ccccc2)CC1,14.5 µg/mL
9,CC1=NN(C(N)=S)C(C)(C)C1,> 25.7 µg/mL
10,CN(c1ccccc1)c1ccc([N+](=O)[O-])c2nonc12,2.1 µg/mL
11,C=CCN(c1nc(C)cc(OC)n1)S(=O)(=O)c1ccccc1,19.4 µg/mL
12,Cl.O[C@@H](c1cc(C(F)(F)F)nc2c(C(F)(F)F)cccc12)[C@H]1CCCCN1,> 62.2 µg/mL
13,COC(=O)c1[nH]c2ccccc2c1CN1CCOCC1,> 41.1 µg/mL
14,Cc1cc(C(=O)CCC(=O)Nc2ncccc2O)c(C)s1,> 45.7 µg/mL
15,CCN/C=C(\C#N)S(=O)(=O)c1ccc(Br)cc1,34.8 µg/mL
16,CC1CCCCC1NC(=O)CN1C(=O)c2ccccc2S1(=O)=O (stereo not drawn),25.7 µg/mL
17,CCN(CC)c1nc(C)nc2c1sc(=S)n2C,0.6 µg/mL
18,CC1CN(C(=S)Nc2ccc(F)cc2F)CC(C)O1 (stereo not drawn),> 43 µg/mL
19,CC(=O)Nc1c2c(nn1-c1ccc(F)cc1)CSC2,> 41.6 µg/mL
20,CC(C)(C)c1ccc(OCC(O)CN2CCCC2)cc1.Cl (stereo not drawn),> 47.1 µg/mL
21,CN(c1ccccc1)c1nc(N)c([N+](=O)[O-])c(N2CCCC2)n1,20.9 µg/mL
22,C=CCSc1nc(N)cc(=O)[nH]1,> 27.5 µg/mL
23,O=C1c2ccccc2C(=O)N1CCOc1ccccc1Cl,3.5 µg/mL
24,COc1ccc(CCNC(=O)Cc2ccc([N+](=O)[O-])cc2)cc1OC,51.3 µg/mL

row,SMILES,solubility kinetic
1,O=C(NCc1ccccn1)c1cccc(S(=O)(=O)N2CCc3ccccc32)c1,21 µg/mL
2,CC1(C(=O)O)CCC(C(=O)Nc2cccc(F)c2)C1(C)C (stereo not drawn),> 44 µg/mL
3,Cn1ccnc1SCC(=O)Nc1ccc(SC(F)F)cc1,> 49.4 µg/mL
4,CC(NC(=O)CNC(=O)c1ccccc1Br)c1cccs1 (stereo not drawn),> 55.1 µg/mL
5,CCN(C(=O)c1ccc(Br)cc1)c1ccccc1,32.4 µg/mL
6,Cc1ccc(NC(=O)CSc2cccc[n+]2[O-])c([N+](=O)[O-])c1,> 47.9 µg/mL
7,O=C(O)C1CCN(S(=O)(=O)c2ccc3c(c2)OCCCO3)CC1,> 51.2 µg/mL
8,Cn1c(SCC(=O)Nc2ccccc2[N+](=O)[O-])nnc1C(F)(F)F,> 54.2 µg/mL
9,COc1ccccc1NC(=O)c1cc([N+](=O)[O-])ccc1N1CCOCC1,31.2 µg/mL
10,Cc1cc(C(C)(C)C)cc(C)c1COC(=O)c1cccnc1,1.7 µg/mL
11,CC1CC(C)CN(S(=O)(=O)c2ccc(C(C)(C)C)cc2)C1 (stereo not drawn),< 0.7 µg/mL
12,CCC(=O)Nc1nc(NCc2ccccc2OC)n(-c2ccccc2)n1,> 52.7 µg/mL
13,Oc1ccc(C(=S)N2CCN(c3cccc(Cl)c3)CC2)cc1,1.3 µg/mL
14,O=C1C(Cl)=CC(=Nc2ccc([O-])cc2)C=C1Cl.[Na+],> 43.5 µg/mL
15,CSc1ncc(C(=O)Nc2cccc(Cl)c2)c(C)n1,> 44.1 µg/mL
16,O=CN1CCN(C(=O)c2cc3cc(Cl)ccc3[nH]2)CC1,34.9 µg/mL
17,CCOP(=O)(c1ccc(N(C)C)cc1)C(O)c1cccnc1 (stereo not drawn),> 48 µg/mL
18,COc1ccc(S(=O)(=O)N2CCN(C)CC2)cc1,> 40.6 µg/mL
19,CC(=O)Cn1ncc(N2CCOCC2)c(Br)c1=O,> 47.4 µg/mL
20,O=C(NCCc1ccccc1)c1coc(=O)c(Br)c1,9.8 µg/mL
21,CC(=O)c1cc(C)ccc1OC(=O)CN1C(=O)c2ccccc2C1=O,24.6 µg/mL
22,COc1ccccc1NC(=O)C1CCCN(c2cnccn2)C1 (stereo not drawn),> 46.9 µg/mL
